For one assay, the system named is AR LBD. The following applies: non-competitive antagonists; cited from earlier work.
Assay [1] relates to AR-dependent luciferase reporter (ARE-Luc) in CWR22R cells. Put plainly: AR-dependent luciferase reporter. The following applies: 10μM of compounds, 24h, vs 0.1% DMSO. Format: cell-based, human. (In a reporter assay the amount or activity of a reporter protein is the signal.)
The test system of assay [2] is Prostate Specific Antigen (PSA) expression in C4-2 cells. Put plainly: PSA secretion by C4-2 cells. In kind it is cell-based, human. The conditions noted are these: 10μM of compounds, 72h, PSA in medium vs 0.1% DMSO.
The next assay relates to LNCaP cells. Put plainly: Colony formation assay, LNCaP. In kind it is cell-based, human.
For another assay, the system named is C4-2 cells. As to the kind of experiment: Colony formation assay, C4-2. Format: cell-based, human.
The subject of a further assay is CWR22R cells. Put plainly: Colony formation / growth assay, CWR22R. In kind it is cell-based, human.
A further assay deals with PSA levels. The following applies: Phase I clinical trial, castration resistant PCa; cited from earlier work.
Where [3] appears, read: number of colonies, vs 0.1% DMSO.

On to `CNC(=O)c1ccc(N2C(=S)N(c3ccc(C#N)c(C(F)(F)F)c3)C(=O)C23CCC3)cc1F` [RD162], for which the “binding to the AR LBD” value with AR LBD is “bind with high affinity”.

As for `CC(O)(CS(=O)(=O)c1ccc(F)cc1)C(=O)Nc1ccc(C#N)c(C(F)(F)F)c1` (stereo not shown) [Bic, bicalutamide], in assay [1], the “Activity of ARE-Luc in CWR22R11 cells” value is given as 43 % of DMSO. Also, in assay [2], the “PSA secretion in C4-2 cells” value is recorded as 0 % of DMSO. The “growth of androgen-sensitive LNCaP cells” value in the assay on LNCaP cells (colony formation, 10μM) was “suppressed growth”. The “Survival of cells in the presence of 10μM of a compound (DMSO=100%), LNCaP” value with LNCaP cells (setting [3]) came out at 19%. For the same compound, the “growth of androgen-independent C4-2 cells” value in the assay with C4-2 cells (colony formation, 10μM) was “did not suppress growth”. For the same compound, the “Survival of cells in the presence of 10μM of a compound (DMSO=100%), C4-2” value in the assay with C4-2 cells (setting [3]) is given as 91%. The “growth of androgen-independent CWR22R cells” value in the assay with CWR22R cells (colony formation, 10μM) is “did not suppress growth”. Further, the “Survival of cells in the presence of 10μM of a compound (DMSO=100%), CWR22R” value in the assay with CWR22R cells (setting [3]) was 100%.

In the case of `CNC(=O)c1ccc(N2C(=S)N(c3ccc(C#N)c(C(F)(F)F)c3)C(=O)C2(C)C)cc1F` [MDV3100], in the assay with PSA levels, the “PSA levels in patients” value is reported as “efficacy in decreasing PSA levels”.

The record behind these values is PMC2896895 (Cell cycle (Georgetown, Tex.), 2009).
